Key:
NPY Y2 receptor [1] = target: T1, NPY Y2 receptor (Homo sapiens, UniProt P49146); experiment: Neuropeptide Y2 pKB assay (FLIPR, KAN-Ts cells stably expressing chimeric G proteins); type: cell-based; conditions: apparent pKB, modified Cheng-Prusoff correction
T1 sequence (P49146 1-381): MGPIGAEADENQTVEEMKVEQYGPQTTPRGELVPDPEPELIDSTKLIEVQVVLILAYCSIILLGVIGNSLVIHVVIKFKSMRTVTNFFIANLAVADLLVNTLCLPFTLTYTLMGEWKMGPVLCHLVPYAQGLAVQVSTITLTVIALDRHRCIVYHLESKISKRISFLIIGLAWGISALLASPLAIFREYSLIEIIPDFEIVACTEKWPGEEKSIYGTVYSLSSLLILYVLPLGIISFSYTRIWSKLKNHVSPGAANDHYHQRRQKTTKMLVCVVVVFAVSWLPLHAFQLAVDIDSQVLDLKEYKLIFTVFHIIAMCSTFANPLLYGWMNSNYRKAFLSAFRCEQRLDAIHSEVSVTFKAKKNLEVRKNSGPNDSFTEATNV
Protocol: The assay was performed using the fluorimetric imaging plate reader (FLIPR) format as described in Dautzenberg, F. M., Biochemical Pharmacology 2005, 69, 1493.
KAN-Ts cells stably expressing chimeric G proteins were seeded at a density of 100,000 cells into poly-d-lysine coated 384-well blackwall, clear-bottom microtiter plates (Corning, N.Y.). One day later, the medium was removed and 50 μl loading medium DMEM high glucose, without serum, supplemented with 10 mM HEPES-acid, 0.1% BSA, 5 mM probenecid and 2 μM Fluo-3AM was added. Cells were loaded for 1 h at 37° C., washed twice with 50 μl assay buffer (5 mM HEPES-acid, 140 mM NaCl, 1 mM MgCl2, 5 mM KCl, 10 mM glucose) and then 30 μl assay buffer was added. Cells were further pre-incubated at room temperature before adding agonists or agonists plus antagonists in 20 μl assay buffer and then measured on a T-channel fluorometric imaging plate reader (FLIPR, Molecular Devices, Sunnyvale, Calif.). Antagonistic potency values were converted to apparent pKB values using a modified Cheng-Prusoff correction. Apparent pKB was calculated as pKB=−log IC50/1+[conc agonist/EC50].

NPY Y2 receptor [2] = target: T1, NPY Y2 receptor; experiment: Neuropeptide Y2 radioligand binding assay ([125I]PYY, KAN-Ts membranes); parameters: endogenous in cells; host or cells: KAN-Ts cells (membrane preparation); conditions: for IC50: KAN-Ts membranes endogenously expressing Y2, [125I]PYY (80 pM), 1 h at rt; for Ki: apparent Ki=IC50/(1+C/KD)
In short: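 Membranes from KAN-Ts cells with endogenous Y2 receptors, incubated with 80 pM [125I]PYY ± compound for 1 h at rt in HEPES/NaCl/CaCl2/MgSO4 buffer, then filtered and counted. Nonspecific binding defined with […]. IC50 from sigmoidal fit; Ki = IC50/(1+C/KD).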

Structure (SMILES)	Kb (NPY Y2 receptor [1]) [nM]	IC50 (NPY Y2 receptor [2]) [nM]	Ki (NPY Y2 receptor [2]) [nM]
CCC(CC)C(=O)Nc1ccc(N2CCN(C(c3ccccc3)c3cc(C)no3)CC2)c(F)c1 (centres unmarked) [Compound 230, 2-Ethyl-N-(3-fluoro-4-{4-[(3-methyl-isoxazol-5-yl)-phenyl-methyl]-piperazin-1-yl}-phenyl)-butyramide]	25.1	12	–
CCC(CC)C(=O)Nc1ccc(N2CCN(C(c3ccccc3)c3noc(-c4ccccc4)n3)CC2)c(F)c1 (centres unmarked) [Compound 240, 2-Ethyl-N-(3-fluoro-4-{4-[phenyl-(5-phenyl-[1,2,4]-oxadiazol-3-yl)-methyl]-piperazin-1-yl}-phenyl)-butyramide]	126	39	–
CCC(CC)C(=O)Nc1ccc(N2CCN(C(c3cccc(F)c3)c3ncco3)CC2)c(C#N)c1 (centres unmarked) [Compound 131, N-(3-Cyano-4-{4-[(3-fluoro-phenyl)-oxazol-2-yl-methyl]-piperazin-1-yl}-phenyl)-2-ethyl-butyramide]	12.6	7	–
CCC(CC)C(=O)Nc1ccc(N2CCN(C(c3ccccc3)c3ccccc3)CC2)c(F)c1 [Compound 4, N-[4-(4-Benzhydryl-piperazin-1-yl)-3-fluoro-phenyl]-2-ethyl-butyramide]	79.4	33	–
CCC(CC)C(=O)Nc1ccc(N2CCN(C(c3ccccc3)c3ncco3)CC2)c(F)c1 (single isomer, unassigned) [Compound 59, 2-Ethyl-N-{3-fluoro-4-[4-(oxazol-2-yl-phenyl-methyl)-piperazin-1-yl]-phenyl}-butyramide]	200	96	–
N#Cc1cc(NC(=O)[C@@H]2CCOC2)ccc1N1CCN(C(c2ccccc2)c2ncco2)CC1 (some centres unmarked) [Compound 90, Tetrahydro-furan-3-carboxylic acid {3-cyano-4-[4-(oxazol-2-yl-phenyl-methyl)-piperazin-1-yl]-phenyl}-amide]	31.6	38	–
CC[C@@H](C)C(=O)Nc1ccc(N2CCN(C(c3ccccc3)c3ncco3)CC2)c(F)c1 (stereo in doubt) [Compound 91, N-{3-Fluoro-4-[4-(oxazol-2-yl-phenyl-methyl)-piperazin-1-yl]-phenyl}-2-methyl-butyramide]	158	240	–
CCC(CC)C(=O)Nc1ccc(N2CCN(C(c3ccccc3)c3noc(-c4cccnc4)n3)CC2)c(F)c1 (centres unmarked) [Compound 238, 2-Ethyl-N-(3-fluoro-4-{4-[phenyl-(5-pyridin-3-yl-[1,2,4]-oxadiazol-3-yl)-methyl]-piperazin-1-yl}-phenyl)-butyramide]	31.6	25	–
CCC(CC)C(=O)Nc1ccc(N2CCN(C(c3ccccc3)c3nnc(C(C)C)o3)CC2)c(F)c1 (centres unmarked) [Compound 160, 2-Ethyl-N-(3-fluoro-4-{4-[(5-isopropyl-[1,3,4]-oxadiazol-2-yl)-phenyl-methyl]-piperazin-1-yl}-phenyl)-butyramide]	100	43	–
CCC(CC)C(=O)Nc1ccc(N2CCN(C(c3ccccc3)c3nc4ccccc4o3)CC2)c(F)c1 (centres unmarked) [Compound 165, N-{4-[4-(Benzooxazol-2-yl-phenyl-methyl)-piperazin-1-yl]-3-fluoro-phenyl}-2-ethyl-butyramide]	100	18	–
CCC(CC)C(=O)Nc1ccc(N2CCN(C(c3ccccc3)c3ccncc3)CC2)c(C#N)c1 (centres unmarked) [Compound 315, N-{3-Cyano-4-[4-(phenyl-pyridin-4-yl-methyl)-piperazin-1-yl]-phenyl}-2-ethyl-butyramide]	50.1	–	4.4
CCC(CC)C(=O)Nc1ccc(N2CCN(C(c3ccccc3)c3noc(CF)n3)CC2)c(F)c1 (centres unmarked) [Compound 235, 2-Ethyl-N-(3-fluoro-4-{4-[(5-fluoromethyl-[1,2,4]-oxadiazol-3-yl)-phenyl-methyl]-piperazin-1-yl}-phenyl)-butyramide]	63.1	30	–
CCC(CC)C(=O)Nc1ccc(N2CCN(C(c3ccccc3)c3nc4ccccc4o3)CC2)c(C#N)c1 (centres unmarked) [Compound 166, N-{4-[4-(Benzooxazol-2-yl-phenyl-methyl)-piperazin-1-yl]-3-cyano-phenyl}-2-ethyl-butyramide]	79.4	7	–
N#Cc1cc(NC(=O)C2CC2)ccc1N1CCN(C(c2ccccc2)c2cccnc2)CC1 (centres unmarked) [Compound 321, Cyclopropanecarboxylic acid {3-cyano-4-[4-(phenyl-pyridin-3-yl-methyl)-piperazin-1-yl]-phenyl}-amide]	31.6	–	11
CCC(CC)C(=O)Nc1ccc(N2CCN(C(c3ccccc3)c3nc4ccccc4s3)CC2)c(F)c1 (centres unmarked) [Compound 168, N-{4-[4-(Benzothiazol-2-yl-phenyl-methyl)-piperazin-1-yl]-3-fluoro-phenyl}-2-ethyl-butyramide]	70.8	58	–
CCC(CC)C(=O)Nc1ccc(N2CCN(C(c3ccc(C#N)cc3)c3ncco3)CC2)c(C#N)c1 (centres unmarked) [Compound 145, N-(3-Cyano-4-{4-[(4-cyano-phenyl)-oxazol-2-yl-methyl]-piperazin-1-yl}-phenyl)-2-ethyl-butyramide]	63.1	33	–
